Structures are written as SMILES. Converted amounts (≈) assume the structure as drawn.

The text below walks through data of paper PMC4957648 (Journal of medicinal chemistry, 2016).

For one data set, the system named is thyroid hormone receptor. Briefly: Thyroid hormone activity assay, agonist mode. Type of data set: cell-based. The conditions noted are these: for EC50: read-out: TR agonist EC50, GH3.TRE-Luc cells.
Data set [1] can be described thus: Solubility under Cif assay conditions. The data set is classed as physicochemical.
In data set [2] the target is T1, Cif (Pseudomonas aeruginosa, UniProt A0A0H2ZD27). As to the kind of experiment: Fluorescent-based Cif inhibitory assay. Type of data set: biochemical.
A short description of data set [3]: Human liver microsomal stability. Type of data set: in vitro ADME. The conditions noted are these: liver microsomes. (Microsomes from liver hold many membrane-bound enzymes, among them those of drug oxidation.)
For another data set, the system named is GH3.TRE-Luc cells. Briefly: Cytotoxicity in GH3.TRE-Luc cells. The conditions noted are these: concentrations up to 10 μM. The data set is classed as cell-based.
Data set [4] relates to polarized monolayers of airway epithelial cells. Briefly: Cytotoxicity in polarized airway epithelial monolayers. The data set is classed as cell-based. The note with it: concentrations up to 10 μM.
In data set [5] the target is T1, Cif. Briefly: Surface plasmon resonance binding to immobilized Cif. For orientation: In SPR one partner is held on a chip, and binding of the other changes the refractive index at the surface.
A further data set concerns the target T2, Human sEH (Homo sapiens, UniProt P34913).
T2 sequence (P34913 1-555): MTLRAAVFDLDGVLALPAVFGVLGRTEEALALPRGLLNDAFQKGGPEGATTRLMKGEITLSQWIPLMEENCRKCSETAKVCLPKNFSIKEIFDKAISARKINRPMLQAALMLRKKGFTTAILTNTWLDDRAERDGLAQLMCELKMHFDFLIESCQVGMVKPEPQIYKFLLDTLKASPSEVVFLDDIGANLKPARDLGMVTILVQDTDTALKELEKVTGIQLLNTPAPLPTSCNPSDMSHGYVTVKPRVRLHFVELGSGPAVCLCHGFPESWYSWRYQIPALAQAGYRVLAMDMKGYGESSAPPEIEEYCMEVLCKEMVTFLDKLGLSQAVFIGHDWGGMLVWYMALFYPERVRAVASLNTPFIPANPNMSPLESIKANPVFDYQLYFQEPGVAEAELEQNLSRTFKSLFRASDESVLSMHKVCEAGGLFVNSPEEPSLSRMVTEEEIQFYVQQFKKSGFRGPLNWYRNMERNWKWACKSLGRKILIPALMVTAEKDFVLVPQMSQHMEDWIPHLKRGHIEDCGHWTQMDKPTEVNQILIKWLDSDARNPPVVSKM
As to the kind of experiment: biochemical.

Another data set has as its system CFTR. The note with it: from purified Cif protein and P. aeruginosa PA14; ref 5b; cited from earlier work.

T1 sequence (A0A0H2ZD27 25-319 limits assumed): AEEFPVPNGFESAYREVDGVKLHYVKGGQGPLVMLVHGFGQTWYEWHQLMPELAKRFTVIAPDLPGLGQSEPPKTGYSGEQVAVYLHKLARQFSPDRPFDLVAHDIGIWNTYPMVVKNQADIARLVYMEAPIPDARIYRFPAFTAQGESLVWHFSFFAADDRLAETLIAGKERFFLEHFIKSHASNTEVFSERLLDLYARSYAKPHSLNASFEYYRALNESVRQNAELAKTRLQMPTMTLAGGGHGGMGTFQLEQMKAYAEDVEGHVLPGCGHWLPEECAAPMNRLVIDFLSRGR

In the case of `CCC(=O)Nc1cc(Br)c(Oc2ccc(O)c(C(C)C)c2)c(Br)c1` [Compound 1c], the “thyroid hormone activity (compounds with different R1)” value in the data set on thyroid hormone receptor was “lowest thyroid hormone activity”.
In the case of `CCOC(=O)CC(=O)Nc1cc(Br)c(Oc2cccc(C(C)C)c2)c(Br)c1` [Compound 1g], in data set [1], the solubility was in the range of 50 to 100 µM (≈ 25 to 49.9 µg/mL). Also, on Cif [2] (at 50 μM or 25 μM), the Cif inhibitory activity entry was “failed to show inhibitory activity”.
In the same order, the values of `CCOC(=O)CC(=O)Nc1cc(Br)c(Oc2ccc(OC)c(C(C)C)c2)c(Br)c1` [Compound 1h] are 25 to 50 µM (≈ 13.2 to 26.5 µg/mL) and “failed to show inhibitory activity”.
In the case of `CCOC(=O)CC(=O)Nc1cc(Cl)c(Oc2ccc(O)cc2)c(Cl)c1` [Compound 1k], in [1], the solubility lay in the range of 50 to 100 µM (≈ 19.2 to 38.4 µg/mL). Besides, at Cif [2] (at 50 μM), the Cif inhibitory activity entry was “no inhibition”.
As to `CCC(=O)Nc1cc(Cl)c(Oc2ccc(O)c(-c3ccccc3)c2)c(Cl)c1` [Compound 8a], the half-life in data set [3] was over 1 h.
Turning to `CCC(=O)Nc1cc(Cl)c(Oc2ccc(O)c(-c3ccc(C(N)=O)cc3)c2)c(Cl)c1` [Compound 8c, 5′-(2,6-Dichloro-4-propionamidophenoxy)-2′-hydroxy-[1,1′-biphenyl]-4-carboxamide], the cytotoxicity result (in the data set with GH3.TRE-Luc cells; in data set [4]) was “neither 8c nor 8h showed cytotoxicity” each time. In addition, in the data set with thyroid hormone receptor, the EC50 is over 10 µM. The residence time at Cif [5] is 0.0333 to 0.0667 min. Besides, on Cif [2], the “increase in Cif inhibitory potency over lead compound” value (shortened to “increase in Cif inhibitory potency”) was about 10 fold. The same compound returned a half-maximal inhibitory concentration (IC50) against Human sEH of about 8 µM.
In the case of `CCC(=O)Nc1cc(Cl)c(Oc2ccc(O)c(-c3ccc(NC(N)=O)cc3)c2)c(Cl)c1` [Compound 8h], the cytotoxicity result (in the data set with GH3.TRE-Luc cells; in data set [4]) was “neither 8c nor 8h showed cytotoxicity” in each case. The EC50 in the data set with thyroid hormone receptor was over 10 µM. The residence time on Cif [5] was 0.0333 to 0.0667 min. The “increase in Cif inhibitory potency” value on Cif [2] is about 10 fold. Further, the IC50 at Human sEH is about 8 µM.
Turning to `CCC(=O)Nc1cc(Cl)c(Oc2ccc(O)c(-c3ccc(C(C)=O)cc3)c2)c(Cl)c1` [Compound 8j], the concentration for a half-maximal effect (EC50) in the data set on thyroid hormone receptor was over 10 µM. At Cif [5], the residence time was 0.0333 to 0.0667 min. Moreover, at Cif [2], the “increase in Cif inhibitory potency” value is given as about 10 fold.
As for `O=C(O)Cc1cc(I)c(Oc2ccc(O)c(I)c2)c(I)c1` [tiratricol], the “protection of CFTR” value with CFTR is listed as “protects CFTR”.

For orientation: solubility means the concentration that dissolves in the medium under given conditions. One may read the half-life as the time in which the quantity being followed falls by half. A lower half-life goes with rapid decline. In general, EC50 refers to the midpoint of the concentration-response curve. As a reminder, the IC50 is the midpoint of a concentration-inhibition curve. Read a low IC50 as greater potency in that assay.
